Data as given in patent US10227362B2 (priority 2015, dated 2019).
Values after ≈ are worked out from the molar mass of the structure shown.

How the values were obtained:
Assay type in all cases: cell-based
Vero Cell = assay: Vero cell cytotoxicity; settings: Chlorocebus sabaeus, Vero cells
[1] = tested on: Mycobacterium bovis BCG strain TMC1019 (ATCC35737); assay: microbe, parasite or virus in culture; settings: Mycobacterium tuberculosis variant bovis BCG, 24 h, read-out: M. bovis ATCC35737 (ug/mL)
[2] = tested on: Mycobacterium tuberculosis H37Rv strain; assay: In vitro MIC against M. tuberculosis H37Rv strain (MABA, Alamar Blue)
Description: Part I: The in vitro efficacy of anti-Mycobacterium tuberculosis compounds was tested using H37Rv strain.
On the day of the test, the compound was dissolved in pure DMSO (Sigma 276855-2L) to a concentration of 10 mg/mL which was used as the mother liquor of the compound. 30 μL of DMSO was added to wells of column 2 to 11 s of the v-bottom 96-well plates (Axygen-wipp02280). 30 μL of the mother liquor of the compound was added to the well of column 2, after mixing, 30 μL was taken from the well of column 2 and added to the well of column 3, and then pipetted and mixed. The operation was taken to column 10. Column 11 was free of medicine and contained only 30 μL of DMSO. This was the “motherplate” of the compound. From column 2 to 11, the corresponding concentration of the compound was 5, 2.5, 1.25, 0.625, 0.3125, 0.156, 0.078, 0.039, 0.02, 0 mg/mL. […] A flat bottom 96-well plate (Greiner 655090) was used as a “daughterplate”. 98 μL of 7H9 (Sigma M0178) medium was added to the wells of all daughterplates. 2 μL of compound was extracted from the motherboard and added to the corresponding daughter plate. Line A and H, column 1 and 12 of the daughterplate contained only 7H9 medium.
The H37Rv strain in the glycerol cryovial was inoculated into 7H9 medium containing 0.05% Tween 80 and cultured for 4 weeks at 37° C. in a shaker with 200 rpm. The bacterial liquid was washed twice with 7H9 medium containing 0.05% Tween 80 and resuspended in the same medium. The absorbance of the bacteria liquid was adjusted to OD550=0.4-0.5 using the same medium. The bacteria liquid was sub-packed in microcentrifuge tubes and stored at −80° C. Storage time was no more than 1 month. On the day of the test, the packaged bacteria liquid would be […]. The bacteria liquid was diluted 20 times and then diluted 50 times with 7H9 medium, and a total of 1000 times dilution. The bacteria liquid would be used to inoculate on the daughterplate. 100 μL of bacterial liquid was inoculated in each well of the daughterboard, 100 μL 7H9 medium was added to column 12 and without bacteria liquid.
The test daughterplate was placed in an incubator at 37° C. and the humidity was maintained at >80%. A week later, 12.5 μL of 7H9 medium containing 20% Tween 80 and 20 μL of Alamar Blue (Invitrogen DAL1100) were added to the well of a column 1 containing bacteria and the well of a column 12 without bacteria every day, and then continue to incubate for 24 hours and observed. When the added Alamar Blue was reduced to pink in 24 hours by the bacteria liquid in the well of column 1, the 7H9 medium containing 20% Tween 80 and Alamar Blue were added to all wells on the test plate and the fluorescence values were measured after incubation for 24 hours at 37° C.

SMILES	IC50 (Vero Cell)	MIC [1]	MIC [2]
C[C@]1(CN2Cc3nc(-c4ccc(F)cc4Cl)sc3C2)Cn2cc([N+](=O)[O-])nc2O1 [Compound 77, (S)-2-((2-(2-chloro-4-fluorophenyl)-4H-pyrrolo[3,4-d]thiazol-5(6H)-yl)methyl)-2-methyl-6-nitro-2,3-dihydroimidazo[2,1-b]oxazole]	> 32 µg/mL	< 1 µg/mL	< 1 µg/mL
C[C@]1(CN2Cc3nc(-c4ccc(F)c(F)c4)oc3C2)Cn2cc([N+](=O)[O-])nc2O1 [Compound 90, (S)-2-(3,4-Difluorophenyl)-5-((2-methyl-6-nitro-2,3-dihydroimidazo[2,1-b]oxazol-2-yl)methyl)-5,6-dihydro-4H-pyrrolo[3,4-d]oxazole]	–	< 1 µg/mL	–
C[C@]1(CN2CCc3nc(-c4cc(F)cc(Cl)c4)ccc3C2)Cn2cc([N+](=O)[O-])nc2O1 [Compound 21, (S)-2-((2-(3-Chloro-5-fluorophenyl)-7,8-dihydro-1,6-naphthyridin-6(5H)-yl)methyl)-2-methyl-6-nitro-2,3-dihydroimidazo[2,1-b]oxazole]	–	< 1 µg/mL	–
C[C@]1(CN2CCc3nc(C4CCCCC4)ccc3C2)Cn2cc([N+](=O)[O-])nc2O1 [Compound 59, (S)-2-((2-Cyclohexyl-7,8-dihydro-1,6-naphthyridin-6(5H)-yl)methyl)-2-methyl-6-nitro-2,3-dihydroimidazo[2,1-b]oxazole]	–	< 1 µg/mL	–
C[C@]1(CN2Cc3nc(-c4cccc(F)c4)sc3C2)Cn2cc([N+](=O)[O-])nc2O1 [Compound 70, (S)-2-((2-(3-Fluorophenyl)-4H-pyrrolo[3,4-d]thiazol-5(6H)-yl)methyl)-2-methyl-6-nitro-2,3-dihydroimidazo[2,1-b]oxazole]	> 32 µg/mL	< 1 µg/mL	< 1 µg/mL
C[C@]1(CN2CCc3oc(-c4ccc(F)cc4)cc3C2)Cn2cc([N+](=O)[O-])nc2O1 [Compound 64, (S)-2-(4-Fluorophenyl)-5-((2-methyl-6-nitro-2,3-dihydroimidazo[2,1-b]oxazol-2-yl)methyl)-4,5,6,7-tetrahydrofuro[3,2-c]pyridine]	–	< 1 µg/mL	–
C[C@]1(CN2CCc3nc(-c4ccc(C(F)(F)F)cc4)ccc3C2)Cn2cc([N+](=O)[O-])nc2O1 [Compound 10, (S)-2-Methyl-6-nitro-2-((2-(4-(trifluoromethyl)phenyl)-7,8-dihydro-1,6-naphthyridin-6(5H)-yl)methyl)-2,3-dihydroimidazo[2,1-b]oxazole]	> 32 µg/mL	< 1 µg/mL	< 1 µg/mL
C[C@]1(CN2Cc3nc(-c4ccc(OC(F)(F)F)cc4)sc3C2)Cn2cc([N+](=O)[O-])nc2O1 [Compound 73, (S)-2-Methyl-6-nitro-2-((2-(4-(trifluoromethoxy)phenyl)-4H-pyrrolo[3,4-d]thiazol-5(6H)-yl)methyl)-2,3-dihydroimidazo[2,1-b]oxazole]	–	1 to 32 µg/mL (≈ 2.14 to 68.5 µM)	–
C[C@]1(CN2CCc3nc(-c4ccc(F)c(Cl)c4)ccc3C2)Cn2cc([N+](=O)[O-])nc2O1 [Compound 18, (S)-2-((2-(3-Chloro-4-fluorophenyl)-7,8-dihydro-1,6-naphthyridin-6(5H)-yl)methyl)-2-methyl-6-nitro-2,3-dihydroimidazo[2,1-b]oxazole]	–	< 1 µg/mL	–
C[C@]1(CN2Cc3nc(-c4cc(F)c(F)cc4F)sc3C2)Cn2cc([N+](=O)[O-])nc2O1 [Compound 83, (S)-2-Methyl-6-nitro-2-((2-(2,4,5-trifluorophenyl)-4H-pyrrolo[3,4-d]thiazol-5(6H)-yl)methyl)-2,3-dihydroimidazo[2,1-b]oxazole]	–	< 1 µg/mL	–
C[C@]1(Cn2cc3nc(-c4ccc(F)cc4)sc3c2)Cn2cc([N+](=O)[O-])nc2O1 [Compound 75, (S)-2-((2-(4-Fluorophenyl)-5H-pyrrolo[3,4-d]thiazol-5-yl)methyl)-2-methyl-6-nitro-2,3-dihydroimidazo[2,1-b]oxazole]	–	1 to 32 µg/mL (≈ 2.5 to 80.1 µM)	–
C[C@]1(CN2CCc3nc(-c4cc(Cl)ccc4F)ccc3C2)Cn2cc([N+](=O)[O-])nc2O1 [Compound 15, (S)-2-((2-(5-Chloro-2-fluorophenyl)-7,8-dihydro-1,6-naphthyridin-6(5H)-yl)methyl)-2-methyl-6-nitro-2,3-dihydroimidazo[2,1-b]oxazole]	–	< 1 µg/mL	–
C[C@]1(CN2CCc3nc(-c4cccc(Cl)c4F)ccc3C2)Cn2cc([N+](=O)[O-])nc2O1 [Compound 19, (S)-2-((2-(3-Chloro-2-fluorophenyl)-7,8-dihydro-1,6-naphthyridin-6(5H)-yl)methyl)-2-methyl-6-nitro-2,3-dihydroimidazo[2,1-b]oxazole]	–	< 1 µg/mL	–
C[C@]1(CN2CCc3nc(C4CC4)ccc3C2)Cn2cc([N+](=O)[O-])nc2O1 [Compound 26, (S)-2-((2-Cyclopropyl-7,8-dihydro-1,6-naphthyridin-6(5H)-yl)methyl)-2-methyl-6-nitro-2,3-dihydroimidazo[2,1-b]oxazole]	–	< 1 µg/mL	–
C[C@]1(CN2CCc3nc(-c4cccc(F)c4F)ccc3C2)Cn2cc([N+](=O)[O-])nc2O1 [Compound 16, (S)-2-((2-(2,3-Difluorophenyl)-7,8-dihydro-1,6-naphthyridin-6(5H)-yl)methyl)-2-methyl-6-nitro-2,3-dihydroimidazo[2,1-b]oxazole]	–	< 1 µg/mL	–
C[C@]1(CN2CCc3nc(Nc4ccc(F)cc4)ccc3C2)Cn2cc([N+](=O)[O-])nc2O1 [Compound 33, (S)—N-(4-Fluorophenyl)-6-((2-methyl-6-nitro-2,3-dihydroimidazo[2,1-b]oxazol-2-yl)methyl)-5,6,7,8-tetrahydro-1,6-naphthyridin-2-amine]	–	< 1 µg/mL	–
C[C@]1(CN2CCc3nc(-c4ccc(OC(F)(F)F)c(F)c4)ccc3C2)Cn2cc([N+](=O)[O-])nc2O1 [Compound 11, (S)-2-((2-(3-Fluoro-4-(trifluoromethoxy)phenyl)-7,8-dihydro-1,6-naphthyridin-6(5H)-yl)methyl)-2-methyl-6-nitro-2,3-dihydroimidazo[2,1-b]oxazole]	–	1 to 32 µg/mL (≈ 2.03 to 64.9 µM)	–
C[C@]1(CN2CCc3nc(-c4cc(F)cc(F)c4)ncc3C2)Cn2cc([N+](=O)[O-])nc2O1 [Compound 48, (S)-2-((2-(3,5-Difluorophenyl)-7,8-dihydropyrido[4,3-d]pyrimidin-6(5H)-yl)methyl)-2-methyl-6-nitro-2,3-dihydroimidazo[2,1-b]oxazole]	–	< 1 µg/mL	–
C[C@]1(CN2CCc3nc(-c4ccc(Cl)cc4F)ccc3C2)Cn2cc([N+](=O)[O-])nc2O1 [Compound 23, (S)-2-((2-(4-Chloro-2-fluorophenyl)-7,8-dihydro-1,6-naphthyridin-6(5H)-yl)methyl)-2-methyl-6-nitro-2,3-dihydroimidazo[2,1-b]oxazole]	–	< 1 µg/mL	–
C[C@]1(CN2CCc3nc(-c4cc(F)ccc4Cl)ccc3C2)Cn2cc([N+](=O)[O-])nc2O1 [Compound 22, (S)-2-((2-(2-Chloro-5-fluorophenyl)-7,8-dihydro-1,6-naphthyridin-6(5H)-yl)methyl)-2-methyl-6-nitro-2,3-dihydroimidazo[2,1-b]oxazole]	–	< 1 µg/mL	–
C[C@]1(CN2CCc3nc(N4CCCCC4)ccc3C2)Cn2cc([N+](=O)[O-])nc2O1 [Compound 28, (S)-2-Methyl-6-nitro-2-((2-(piperidin-1-yl)-7,8-dihydro-1,6-naphthyridin-6(5H)-yl)methyl)-2,3-dihydroimidazo[2,1-b]oxazole]	–	< 1 µg/mL	–
C[C@]1(CN2CCc3nc(-c4cc(F)ccc4F)ccc3C2)Cn2cc([N+](=O)[O-])nc2O1 [Compound 17, (S)-2-((2-(2,5-Difluorophenyl)-7,8-dihydro-1,6-naphthyridin-6(5H)-yl)methyl)-2-methyl-6-nitro-2,3-dihydroimidazo[2,1-b]oxazole]	–	< 1 µg/mL	–
C[C@]1(CN2Cc3nc(-c4cc(F)c(F)cc4F)oc3C2)Cn2cc([N+](=O)[O-])nc2O1 [Compound 94, (S)-5-((2-Methyl-6-nitro-2,3-dihydroimidazo[2,1-b]oxazol-2-yl)methyl)-2-(2,4,5-trifluorophenyl)-5,6-dihydro-4H-pyrrolo[3,4-d]oxazole]	–	< 1 µg/mL	–
C[C@]1(CN2CCc3nc(-c4ccsc4Cl)ccc3C2)Cn2cc([N+](=O)[O-])nc2O1 [Compound 53, (S)-2-((2-(2-Chlorothiophen-3-yl)-7,8-dihydro-1,6-naphthyridin-6(5H)-yl)methyl)-2-methyl-6-nitro-2,3-dihydroimidazo[2,1-b]oxazole]	–	< 1 µg/mL	–
